These results are taken from PMC3852541, “Construction of an in vitro bypassed pyruvate decarboxylation pathway using thermostable enzyme modules and its application to N-acetylglutamate production” (Microbial Cell Factories, 2013).

This assay addresses T1, TtADDH (Thermus thermophilus, UniProt Q53WH9).
T1 construct: gene TTHB247; full-length from RIKEN T. thermophilus HB8 expression plasmid set; E. coli Rosetta2 (DE3), heat-treated lysate (70 C, 30 min)
The experiment in a line: NAD+ reduction at […] nm; HPLC of products. The note with it: 0.2 mM NAD+, 0.2 mM CoA, 0.2 mM acetaldehyde; 50 mM HEPES-NaOH pH 7.0, 100 mM KCl, 10 mM MgCl2, 50 C. It is filed as biochemical.

T1 sequence (Q53WH9 whole entry): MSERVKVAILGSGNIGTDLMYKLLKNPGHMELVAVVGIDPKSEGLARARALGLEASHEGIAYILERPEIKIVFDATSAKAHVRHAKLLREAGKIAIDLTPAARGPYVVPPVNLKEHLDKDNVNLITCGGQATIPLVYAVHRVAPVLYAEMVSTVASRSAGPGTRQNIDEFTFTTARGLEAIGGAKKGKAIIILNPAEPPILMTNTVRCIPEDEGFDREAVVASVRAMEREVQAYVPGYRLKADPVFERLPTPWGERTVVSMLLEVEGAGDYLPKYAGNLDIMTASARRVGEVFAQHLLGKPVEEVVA

With `CC=O` [acetaldehyde], the “NAD+ reduction at 340 nm; HPLC of products” value was “TtADDH could catalyze the oxidation of acetaldehyde in both CoA-dependent (acetyl-CoA-forming) and CoA-independent”.
